According to patent US11370798B2 (Vertex Pharmaceuticals Incorporated, priority 2012, dated 2022):
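Note: Test-compound concentration that lowers the Cisplatin IC50 by a set fold.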

What follows are compounds tested on HCT116 colorectal cancer cells (assay: Cisplatin sensitization assay (96 h cell viability MTS)). Settings: compound and Cisplatin added simultaneously, Cisplatin sensitization value.
Assay type: cell-based
Method in brief: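 Viability read by MTS (1 h at 37° C) after 96 h co-exposure at 37° C, 5% CO2. Test compound and cisplatin were dosed simultaneously in a full concentration matrix, each 2-fold serially diluted from 10 μM final; sensitization values binned in μM.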
With CS(=O)(=O)C1CCN(c2ccncc2NC(=O)c2c(N)nn3cc(F)cnc23)CC1 [I-N-190, 2-amino-6-fluoro-N-(4-(4-(methylsulfonyl)piperidin-1-yl)pyridin-3-yl)pyrazolo[1,5-a]pyrimidine-3-carboxamide] the “Cisplatin Sensitization Assay” value was “+++ (Cisplatin sensitization value of <0.02 μM)”. For CN1CCN(C(=O)C2CCN(c3c(F)cncc3NC(=O)c3c(N)nn4cc(F)cnc34)C2)CC1 (centres unmarked) [I-N-191, 2-amino-6-fluoro-N-(5-fluoro-4-(3-(4-methylpiperazine-1-carbonyl)pyrrolidin-1-yl)pyridin-3-yl)pyrazolo[1,5-a]pyrimidine-3-carboxamide], the “Cisplatin Sensitization Assay” value was “+ (Cisplatin sensitization value>0.2 μM but <5 μM)”. CN1CCN(CC2CCN(c3c(F)cncc3NC(=O)c3c(N)nn4cc(C5(C#N)CC5)cnc34)CC2)CC1 [I-N-192, 2-amino-6-(1-cyanocyclopropyl)-N-(5-fluoro-4-(4-((4-methylpiperazin-1-yl)methyl)piperidin-1-yl)pyridin-3-yl)pyrazolo[1,5-a]pyrimidine-3-carboxamide] was tested, and the “Cisplatin Sensitization Assay” value was “+++ (Cisplatin sensitization value of <0.02 μM)”. With CN1CCN(CC2CCN(c3c(F)cncc3NC(=O)c3c(N)nn4cc(F)cnc34)CC2)C(=O)C1 [I-N-193, 2-amino-6-fluoro-N-(5-fluoro-4-(4-((4-methyl-2-oxopiperazin-1-yl)methyl)piperidin-1-yl)pyridin-3-yl)pyrazolo[1,5-a]pyrimidine-3-carboxamide] the “Cisplatin Sensitization Assay” value was “+++ (Cisplatin sensitization value of <0.02 μM)”. In the case of CN1CC(C(=O)N2CCN(c3c(F)cncc3NC(=O)c3c(N)nn4cc(F)cnc34)CC2)C1 [I-N-194], the “Cisplatin Sensitization Assay” value is reported as “+++ (Cisplatin sensitization value of <0.02 μM)”. Nc1nn2cc(F)cnc2c1C(=O)Nc1cnccc1N1CCN(S(=O)(=O)C2COC2)CC1 [I-N-195, 2-amino-6-fluoro-N-(4-(4-(oxetan-3-ylsulfonyl)piperazin-1-yl)pyridin-3-yl)pyrazolo[1,5-a]pyrimidine-3-carboxamide] was tested, and the “Cisplatin Sensitization Assay” value was “+++ (Cisplatin sensitization value of <0.02 μM)”. With Nc1nn2cc(F)cnc2c1C(=O)Nc1cnccc1N1CCC(S(=O)(=O)N2CCN3CCC2CC3)CC1 [I-N-196, N-(4-(4-(1,4-diazabicyclo[3.2.2]nonan-4-ylsulfonyl)piperidin-1-yl)pyridin-3-yl)-2-amino-6-fluoropyrazolo[1,5-a]pyrimidine-3-carboxamide] the “Cisplatin Sensitization Assay” value was “+++ (Cisplatin sensitization value of <0.02 μM)”. With Nc1nn2cc(F)cnc2c1C(=O)Nc1cnccc1N1CCC(CN2CCC(F)(F)C2)CC1 [I-N-197, 2-amino-N-(4-(4-((3,3-difluoropyrrolidin-1-yl)methyl)piperidin-1-yl)pyridin-3-yl)-6-fluoropyrazolo[1,5-a]pyrimidine-3-carboxamide] the “Cisplatin Sensitization Assay” value was “+++ (Cisplatin sensitization value of <0.02 μM)”. In the case of CN1CCC[C@H]1C(=O)N1CCN(c2ccncc2NC(=O)c2c(N)nn3cc(F)cnc23)CC1 [I-N-198, (S)-2-amino-6-fluoro-N-(4-(4-(1-methylpyrrolidine-2-carbonyl)piperazin-1-yl)pyridin-3-yl)pyrazolo[1,5-a]pyrimidine-3-carboxamide], the “Cisplatin Sensitization Assay” value is reported as “++ (Cisplatin sensitization value>0.02 μM but <0.2 μM)”. For CN1CCC[C@@H]1C(=O)N1CCN(c2ccncc2NC(=O)c2c(N)nn3cc(F)cnc23)CC1 [I-N-199, (R)-2-amino-6-fluoro-N-(4-(4-(1-methylpyrrolidine-2-carbonyl)piperazin-1-yl)pyridin-3-yl)pyrazolo[1,5-a]pyrimidine-3-carboxamide], the “Cisplatin Sensitization Assay” value was “+++ (Cisplatin sensitization value of <0.02 μM)”. With Nc1nn2cc(F)cnc2c1C(=O)Nc1cnccc1N1CCC(S(=O)(=O)C2COC2)CC1 [I-N-200, 2-amino-6-fluoro-N-(4-(4-(oxetan-3-ylsulfonyl)piperidin-1-yl)pyridin-3-yl)pyrazolo[1,5-a]pyrimidine-3-carboxamide] the “Cisplatin Sensitization Assay” value was “+++ (Cisplatin sensitization value of <0.02 μM)”. With Nc1nn2cc(F)cnc2c1C(=O)Nc1cncc(F)c1N1CCN(S(=O)(=O)C2COC2)CC1 [I-N-201] the “Cisplatin Sensitization Assay” value was “+++ (Cisplatin sensitization value of <0.02 μM)”. For Nc1nn2cc(F)cnc2c1C(=O)Nc1cnccc1-n1ccnc1C1CC1 [I-N-202, 2-amino-N-(4-(2-cyclopropyl-1H-imidazol-1-yl)pyridin-3-yl)-6-fluoropyrazolo[1,5-a]pyrimidine-3-carboxamide], the “Cisplatin Sensitization Assay” value was “+++ (Cisplatin sensitization value of <0.02 μM)”. For Nc1nn2cc(F)cnc2c1C(=O)Nc1cncc(F)c1N1CCN(C(=O)C2CC3CCCCN3C2)CC1 (centres unmarked) [I-N-203, 2-amino-6-fluoro-N-(5-fluoro-4-(4-(octahydroindolizine-2-carbonyl)piperazin-1-yl)pyridin-3-yl)pyrazolo[1,5-a]pyrimidine-3-carboxamide], the “Cisplatin Sensitization Assay” value was “+++ (Cisplatin sensitization value of <0.02 μM)”. With CC(C)N1CCCC1C(=O)N1CCN(c2c(F)cncc2NC(=O)c2c(N)nn3cc(F)cnc23)CC1 (centres unmarked) [I-N-205, 2-amino-6-fluoro-N-(5-fluoro-4-(4-(1-isopropylpyrrolidine-2-carbonyl)piperazin-1-yl)pyridin-3-yl)pyrazolo[1,5-a]pyrimidine-3-carboxamide] the “Cisplatin Sensitization Assay” value was “++ (Cisplatin sensitization value>0.02 μM but <0.2 μM)”. In the case of CC(C)N1CCC(C(=O)N2CCN(c3c(F)cncc3NC(=O)c3c(N)nn4cc(F)cnc34)CC2)C1 (centres unmarked) [I-N-206, 2-amino-6-fluoro-N-(5-fluoro-4-(4-(1-isopropylpyrrolidine-3-carbonyl)piperazin-1-yl)pyridin-3-yl)pyrazolo[1,5-a]pyrimidine-3-carboxamide], the “Cisplatin Sensitization Assay” value is reported as “+++ (Cisplatin sensitization value of <0.02 μM)”. With COCCS(=O)(=O)C1CCN(c2ccncc2NC(=O)c2c(N)nn3cc(F)cnc23)CC1 [I-N-208, 2-amino-6-fluoro-N-(4-(4-((2-methoxyethyl)sulfonyl)piperidin-1-yl)pyridin-3-yl)pyrazolo[1,5-a]pyrimidine-3-carboxamide] the “Cisplatin Sensitization Assay” value was “+++ (Cisplatin sensitization value of <0.02 μM)”. For CN1CCN(c2ccncc2NC(=O)c2c(N)nn3cc(F)cnc23)CC1=O [I-N-209, 2-amino-6-fluoro-N-(4-(4-methyl-3-oxopiperazin-1-yl)pyridin-3-yl)pyrazolo[1,5-a]pyrimidine-3-carboxamide], the “Cisplatin Sensitization Assay” value was “+++ (Cisplatin sensitization value of <0.02 μM)”. For Nc1nn2cc(F)cnc2c1C(=O)Nc1cnccc1N1CCS(=O)(=O)CC1 [I-N-210, 2-amino-N-(4-(1,1-dioxidothiomorpholino)pyridin-3-yl)-6-fluoropyrazolo[1,5-a]pyrimidine-3-carboxamide], the “Cisplatin Sensitization Assay” value was “+++ (Cisplatin sensitization value of <0.02 μM)”. Nc1nn2cc(F)cnc2c1C(=O)Nc1cncc(F)c1N1CCN(C(=O)C2CCN(C3COC3)CC2)CC1 [I-N-211, 2-amino-6-fluoro-N-(5-fluoro-4-(4-(1-(oxetan-3-yl)piperidine-4-carbonyl)piperazin-1-yl)pyridin-3-yl)pyrazolo[1,5-a]pyrimidine-3-carboxamide] was tested, and the “Cisplatin Sensitization Assay” value was “++ (Cisplatin sensitization value>0.02 μM but <0.2 μM)”. In the case of CN1CCN(c2c(F)cncc2NC(=O)c2c(N)nn3cc(F)cnc23)CC1=O [I-N-212, 2-amino-6-fluoro-N-(5-fluoro-4-(4-methyl-3-oxopiperazin-1-yl)pyridin-3-yl)pyrazolo[1,5-a]pyrimidine-3-carboxamide], the “Cisplatin Sensitization Assay” value is reported as “+++ (Cisplatin sensitization value of <0.02 μM)”. With Nc1nn2cc(F)cnc2c1C(=O)Nc1cncc(F)c1N1CCC(CN2CCCC2=O)CC1 [I-N-213, 2-amino-6-fluoro-N-(5-fluoro-4-(4-((2-oxopyrrolidin-1-yl)methyl)piperidin-1-yl)pyridin-3-yl)pyrazolo[1,5-a]pyrimidine-3-carboxamide] the “Cisplatin Sensitization Assay” value was “+++ (Cisplatin sensitization value of <0.02 μM)”. CN1CCCCC1C(=O)N1CCN(c2c(F)cncc2NC(=O)c2c(N)nn3cc(F)cnc23)CC1 (centres unmarked) [I-N-214, 2-amino-6-fluoro-N-(5-fluoro-4-(4-(1-methylpiperidine-2-carbonyl)piperazin-1-yl)pyridin-3-yl)pyrazolo[1,5-a]pyrimidine-3-carboxamide] was tested, and the “Cisplatin Sensitization Assay” value was “++ (Cisplatin sensitization value>0.02 μM but <0.2 μM)”. For CS(=O)(=O)CC1CCN(c2ccncc2NC(=O)c2c(N)nn3cc(F)cnc23)CC1 [I-N-215, 2-amino-6-fluoro-N-(4-(4-((methylsulfonyl)methyl)piperidin-1-yl)pyridin-3-yl)pyrazolo[1,5-a]pyrimidine-3-carboxamide], the “Cisplatin Sensitization Assay” value was “+++ (Cisplatin sensitization value of <0.02 μM)”. In the case of CN1CC2(CCN(c3ccncc3NC(=O)c3c(N)nn4cc(F)cnc34)CC2)OC1=O [I-N-216, 2-amino-6-fluoro-N-(4-(3-methyl-2-oxo-1-oxa-3,8-diazaspiro[4.5]decan-8-yl)pyridin-3-yl)pyrazolo[1,5-a]pyrimidine-3-carboxamide], the “Cisplatin Sensitization Assay” value is reported as “+++ (Cisplatin sensitization value of <0.02 μM)”. With Nc1nn2cc(F)cnc2c1C(=O)Nc1cnccc1N1CCN2C(=O)CC[C@H]2C1 [I-N-217, (S)-2-amino-6-fluoro-N-(4-(6-oxohexahydropyrrolo[1,2-a]pyrazin-2(1H)-yl)pyridin-3-yl)pyrazolo[1,5-a]pyrimidine-3-carboxamide] the “Cisplatin Sensitization Assay” value was “++ (Cisplatin sensitization value>0.02 μM but <0.2 μM)”. With Cc1nc(C)n(-c2ccncc2NC(=O)c2c(N)nn3cc(F)cnc23)n1 [I-N-218, 2-amino-N-(4-(3,5-dimethyl-1H-1,2,4-triazol-1-yl)pyridin-3-yl)-6-fluoropyrazolo[1,5-a]pyrimidine-3-carboxamide] the “Cisplatin Sensitization Assay” value was “+ (Cisplatin sensitization value>0.2 μM but <5 μM)”. In the case of Nc1nn2cc(F)cnc2c1C(=O)Nc1cnccc1-n1ccnc1C(F)(F)F [I-N-219, 2-amino-6-fluoro-N-(4-(2-(trifluoromethyl)-1H-imidazol-1-yl)pyridin-3-yl)pyrazolo[1,5-a]pyrimidine-3-carboxamide], the “Cisplatin Sensitization Assay” value is reported as “+++ (Cisplatin sensitization value of <0.02 μM)”. For CC1(C)CCCN1c1ccncc1NC(=O)c1c(N)nn2cc(F)cnc12 [I-N-220, 2-amino-N-(4-(2,2-dimethylpyrrolidin-1-yl)pyridin-3-yl)-6-fluoropyrazolo[1,5-a]pyrimidine-3-carboxamide], the “Cisplatin Sensitization Assay” value was “++ (Cisplatin sensitization value>0.02 μM but <0.2 μM)”.
